AC50 data for 35 molecules are collected here from ChEMBL document CHEMBL5291721, “A preclinical secondary pharmacology resource illuminates target-adverse drug reaction associations of marketed drugs” (Nat Commun, 2023).

One experiment concerns the target Mu-type opioid receptor (Homo sapiens, UniProt P35372). Description: biochemical. The format is functional.
Another experiment addresses T1, Adenosine receptor A1 (Homo sapiens, UniProt P30542).
T1 sequence (P30542 whole entry): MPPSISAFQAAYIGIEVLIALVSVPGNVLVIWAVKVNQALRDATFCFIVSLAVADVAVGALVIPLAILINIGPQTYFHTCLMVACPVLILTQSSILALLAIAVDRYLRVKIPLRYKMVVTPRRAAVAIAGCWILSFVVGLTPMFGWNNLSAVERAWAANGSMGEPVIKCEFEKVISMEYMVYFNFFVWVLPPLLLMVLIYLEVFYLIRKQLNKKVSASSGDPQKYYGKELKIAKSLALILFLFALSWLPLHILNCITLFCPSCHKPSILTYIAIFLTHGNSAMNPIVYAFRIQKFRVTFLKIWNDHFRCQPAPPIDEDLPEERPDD

Experiment [1] addresses T2, Alpha-1A adrenergic receptor (Homo sapiens, UniProt P35348).
T2 sequence (P35348 whole entry): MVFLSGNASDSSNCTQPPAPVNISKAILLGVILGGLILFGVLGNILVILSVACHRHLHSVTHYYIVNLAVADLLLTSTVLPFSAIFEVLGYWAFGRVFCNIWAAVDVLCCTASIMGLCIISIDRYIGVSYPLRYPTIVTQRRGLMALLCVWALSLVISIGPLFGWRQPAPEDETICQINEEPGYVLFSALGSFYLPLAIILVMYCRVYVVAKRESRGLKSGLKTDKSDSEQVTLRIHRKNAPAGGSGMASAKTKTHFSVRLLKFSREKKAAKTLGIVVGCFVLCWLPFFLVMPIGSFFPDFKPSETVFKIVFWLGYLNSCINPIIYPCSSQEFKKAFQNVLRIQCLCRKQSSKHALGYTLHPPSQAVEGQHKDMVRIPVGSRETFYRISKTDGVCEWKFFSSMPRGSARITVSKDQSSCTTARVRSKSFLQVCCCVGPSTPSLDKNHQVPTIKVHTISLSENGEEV

A further experiment addresses T3, Estrogen receptor (Homo sapiens, UniProt P03372).
T3 sequence (P03372 whole entry): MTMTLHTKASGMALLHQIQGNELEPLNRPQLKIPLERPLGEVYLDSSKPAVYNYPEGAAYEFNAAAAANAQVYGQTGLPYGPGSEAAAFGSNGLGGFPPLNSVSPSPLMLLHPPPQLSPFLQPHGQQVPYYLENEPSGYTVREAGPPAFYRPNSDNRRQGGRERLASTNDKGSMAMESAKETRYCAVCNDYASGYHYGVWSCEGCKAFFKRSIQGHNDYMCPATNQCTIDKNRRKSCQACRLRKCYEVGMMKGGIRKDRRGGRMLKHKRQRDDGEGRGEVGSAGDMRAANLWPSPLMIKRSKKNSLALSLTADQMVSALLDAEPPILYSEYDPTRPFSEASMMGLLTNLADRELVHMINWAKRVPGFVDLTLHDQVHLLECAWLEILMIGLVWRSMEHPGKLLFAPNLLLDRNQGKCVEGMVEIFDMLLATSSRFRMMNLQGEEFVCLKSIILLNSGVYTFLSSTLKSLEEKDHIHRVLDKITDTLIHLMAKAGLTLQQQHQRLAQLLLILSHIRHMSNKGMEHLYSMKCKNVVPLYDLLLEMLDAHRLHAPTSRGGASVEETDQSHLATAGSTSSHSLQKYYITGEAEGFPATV

The target in experiment [2] is T4, Corticotropin-releasing factor receptor 2 (Homo sapiens, UniProt Q13324).
T4 sequence (Q13324 whole entry): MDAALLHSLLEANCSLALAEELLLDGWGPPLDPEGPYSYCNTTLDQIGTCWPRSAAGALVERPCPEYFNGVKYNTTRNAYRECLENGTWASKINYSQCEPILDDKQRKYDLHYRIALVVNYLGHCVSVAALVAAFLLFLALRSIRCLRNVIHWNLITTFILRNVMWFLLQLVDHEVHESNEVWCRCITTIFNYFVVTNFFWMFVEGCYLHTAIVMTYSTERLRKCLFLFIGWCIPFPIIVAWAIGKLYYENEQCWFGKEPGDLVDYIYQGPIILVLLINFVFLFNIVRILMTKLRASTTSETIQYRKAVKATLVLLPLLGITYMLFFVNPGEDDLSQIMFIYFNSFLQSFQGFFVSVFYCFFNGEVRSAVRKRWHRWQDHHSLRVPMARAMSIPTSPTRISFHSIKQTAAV

For experiment [3], the target named is T5, Neuropeptide Y receptor type 2 (Homo sapiens, UniProt P49146).
T5 sequence (P49146 whole entry): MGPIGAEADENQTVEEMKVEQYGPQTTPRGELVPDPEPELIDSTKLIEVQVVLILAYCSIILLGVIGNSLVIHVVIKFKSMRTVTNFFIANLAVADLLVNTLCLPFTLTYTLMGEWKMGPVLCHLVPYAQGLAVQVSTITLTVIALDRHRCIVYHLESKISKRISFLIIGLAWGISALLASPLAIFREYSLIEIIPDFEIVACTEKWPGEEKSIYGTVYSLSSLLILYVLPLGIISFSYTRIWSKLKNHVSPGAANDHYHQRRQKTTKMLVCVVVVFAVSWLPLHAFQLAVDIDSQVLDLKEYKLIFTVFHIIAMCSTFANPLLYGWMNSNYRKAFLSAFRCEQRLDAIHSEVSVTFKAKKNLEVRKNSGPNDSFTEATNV

Sequence of Mu-type opioid receptor (P35372 whole entry): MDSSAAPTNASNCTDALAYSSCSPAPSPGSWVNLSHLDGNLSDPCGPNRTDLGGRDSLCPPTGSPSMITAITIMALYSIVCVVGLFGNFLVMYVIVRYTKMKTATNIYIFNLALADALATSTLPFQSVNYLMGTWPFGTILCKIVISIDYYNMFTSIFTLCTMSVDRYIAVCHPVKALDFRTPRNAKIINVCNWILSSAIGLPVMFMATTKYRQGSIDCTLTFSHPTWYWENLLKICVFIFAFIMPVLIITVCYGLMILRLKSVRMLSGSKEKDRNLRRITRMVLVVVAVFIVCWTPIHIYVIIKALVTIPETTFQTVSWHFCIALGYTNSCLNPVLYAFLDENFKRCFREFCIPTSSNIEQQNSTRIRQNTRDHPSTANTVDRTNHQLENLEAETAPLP

One may read the AC50 as the midpoint of the concentration-response curve, whichever way the signal moves. Higher therefore signals activity only at high concentration. `C[C@@H](NCCCc1cccc(C(F)(F)F)c1)c1cccc2ccccc12` displayed an AC50 at Mu-type opioid receptor of 1.9 µM.

For the molecule `O=C(O)CO` [GLYCOLIC ACID], the AC50 at Adenosine receptor A1 is above 30 µM.

Regarding `N#Cc1ccc2c(c1)N(CCCN1CCC(O)CC1)c1ccccc1S2` [PERICIAZINE], the AC50 at Adenosine receptor A1 was above 30 µM.

With `C[C@]12C=CC(=O)N[C@@H]1CC[C@@H]1[C@@H]2CC[C@]2(C)[C@@H](C(=O)Nc3cc(C(F)(F)F)ccc3C(F)(F)F)CC[C@@H]12` [DUTASTERIDE], the AC50 at Mu-type opioid receptor is above 30 µM; in experiment [1], above 10 µM; on Estrogen receptor it was above 10 µM.

Consider `CN(C)CCc1c[nH]c2ccc(Cn3cncn3)cc12` [RIZATRIPTAN], for which the AC50 in experiment [2] was above 30 µM; at Mu-type opioid receptor, above 30 µM; in experiment [1] it was above 10 µM; in experiment [3], above 30 µM.

In the case of `Nc1ccc(S(=O)(=O)Nc2nccs2)cc1` [SULFATHIAZOLE], the AC50 is above 30 µM in experiment [2], 5.1 µM in experiment [1], above 30 µM at Estrogen receptor and above 30 µM in experiment [3].

`CCOC(=O)c1c(C)cc2c(CO)n[nH]c(=O)c2c1C` [OXAGRELATE]: half-maximal activity at Adenosine receptor A1 (AC50) was put at 25.9 µM. This lies in the double-digit micromolar range.

Take `COc1ccc(CC2c3cc(OC)c(OC)cc3CC[N+]2(C)CCC(=O)OCCCCCOC(=O)CC[N+]2(C)CCc3cc(OC)c(OC)cc3C2Cc2ccc(OC)c(OC)c2)cc1OC` (stereo not given): the AC50 (at Mu-type opioid receptor; in experiment [1]; on Estrogen receptor) was above 30 µM throughout.

`FC(F)(F)c1ccc(CNc2ccc(Cc3c[nH]c4ncc(Cl)cc34)cn2)cn1` [PEXIDARTINIB] showed an AC50 at Adenosine receptor A1 of 27.7 µM.

Consider `CC(N)C12CC3CC(CC(C3)C1)C2` (stereo not given) [RIMANTADINE], for which the AC50 (in experiment [1]; at Estrogen receptor) was above 10 µM throughout.

As to `O=C1CCc2cc(OCCCCc3nnnn3C3CCCCC3)ccc2N1` [CILOSTAZOL], the AC50 at Mu-type opioid receptor is above 30 µM; in experiment [1], above 10 µM; at Estrogen receptor it was above 30 µM.

Consider `CCN(CC)CCNC(=O)c1c(C)[nH]c(/C=C2\C(=O)Nc3ccc(F)cc32)c1C` [SUNITINIB], for which the half-maximal activity concentration (AC50) on Mu-type opioid receptor was above 30 µM.

On Adenosine receptor A1, `CC[C@@]1(O)C(=O)OCc2c1cc1n(c2=O)Cc2cc3c([N+](=O)[O-])cccc3nc2-1` [RUBITECAN] showed an AC50 above 30 µM.

Consider `COc1ccccc1Oc1c(NS(=O)(=O)c2ccc(C(C)(C)C)cc2)nc(-c2ncccn2)nc1OCCO` [BOSENTAN], for which the AC50 was above 30 µM in experiment [2], above 10 µM in experiment [1], above 30 µM on Estrogen receptor and above 30 µM in experiment [3].

As for `O=C1CN(/N=C/c2ccc(-c3ccc([N+](=O)[O-])cc3)o2)C(O)=N1` [DANTROLENE], the results for the AC50 (at Mu-type opioid receptor; in experiment [1]) were above 30 µM and above 10 µM, respectively.

Take `CC(C(=O)O)c1ccc2c(c1)[nH]c1ccc(Cl)cc12` (stereo not given) [CARPROFEN]: the AC50 in experiment [1] was above 10 µM; at Estrogen receptor, above 30 µM.

On to `C[C@H]1c2cccc(O)c2C(=O)C2=C(O)[C@]3(O)C(=O)C(C(N)=O)=C(O)[C@@H](N(C)C)[C@@H]3[C@@H](O)[C@@H]21` [DOXYCYCLINE], for which the AC50 in experiment [2] was above 30 µM; in experiment [1], 3.4 µM; in experiment [3], above 30 µM.

On to `CC(C)N(CCC(C(N)=O)(c1ccccc1)c1ccccn1)C(C)C` (stereo not given) [DISOPYRAMIDE], for which the AC50 in experiment [2] was above 30 µM; in experiment [1], above 10 µM; in experiment [3], above 30 µM.

Regarding `CC(C)Cc1ccc(C(C)C(=O)O)cc1` (stereo not given) [IBUPROFEN], the AC50 in experiment [2] is above 30 µM; in experiment [1], above 10 µM; at Estrogen receptor it was 21.3 µM; in experiment [3], above 30 µM.

For `CN(CC1(C)CCCO1)S(=O)(=O)c1ccc(Cl)c(S(N)(=O)=O)c1` (stereo not given) [MEFRUSIDE], the AC50 at Mu-type opioid receptor and on Adenosine receptor A1 was above 30 µM each time.

`CN(C)CC[C@@H](c1ccc(Cl)cc1)c1ccccn1` [DEXCHLORPHENIRAMINE] showed an AC50 on Mu-type opioid receptor above 30 µM.

In the case of `C#C[C@]1(O)CC[C@H]2[C@@H]3CCC4=CC(=O)CC[C@@H]4[C@H]3C(=C)C[C@@]21CC` [ETONOGESTREL], the AC50 on Mu-type opioid receptor and on Adenosine receptor A1 was above 30 µM in each case.

With `CCc1nc(C(N)=O)c(Nc2ccc(N3CCC(N4CCN(C)CC4)CC3)c(OC)c2)nc1NC1CCOCC1` [GILTERITINIB], the AC50 at Adenosine receptor A1 was above 30 µM.

Take `O=C1C(CC[S+]([O-])c2ccccc2)C(=O)N(c2ccccc2)N1c1ccccc1` (stereo not given) [SULFINPYRAZONE]: the AC50 on Mu-type opioid receptor is above 30 µM; in experiment [1], above 10 µM; on Estrogen receptor it was above 10 µM.

`CC(=O)O[C@]1(C(C)=O)CC[C@H]2[C@@H]3C=C(C)C4=CC(=O)CC[C@@H]4[C@H]3CC[C@@]21C` [NOMEGESTROL ACETATE]: the AC50 on Mu-type opioid receptor, at Adenosine receptor A1 and on Estrogen receptor was above 30 µM in each case.

As for `C/C=C/C/C=C/CCC(=O)[C@H]1O[C@H]1C(N)=O` [CERULENIN], the AC50 at Adenosine receptor A1 was above 30 µM.

`CCCN(CCC)C(=O)Cc1c(-c2ccc(Cl)cc2)nc2ccc(Cl)cn12` [ALPIDEM]: the AC50 on Mu-type opioid receptor is above 30 µM; on Adenosine receptor A1 it was 14.4 µM; in experiment [1], above 30 µM; on Estrogen receptor, above 30 µM; in experiment [3] it was above 10 µM.

Turning to `CCCC(CCC)C(=O)O` [VALPROIC ACID], the AC50 (in experiment [2]; on Adenosine receptor A1; at Estrogen receptor; in experiment [3]) was above 30 µM each time.

On Adenosine receptor A1, `CC(C)(O)CNc1nc(Nc2ccnc(C(F)(F)F)c2)nc(-c2cccc(C(F)(F)F)n2)n1` [ENASIDENIB] gave an AC50 of 1.29 µM.

Take `CC[C@H]1OC(=O)[C@H](C)C(=O)[C@H](C)[C@@H](O[C@@H]2O[C@H](C)C[C@H](N(C)C)[C@H]2O)[C@](C)(OC)C[C@@H](C)C(=O)[C@H](C)[C@H]2N(CCCCn3cnc(-c4cccnc4)c3)C(=O)O[C@]12C` [TELITHROMYCIN]: the AC50 on Adenosine receptor A1 is above 30 µM.

`CC(=O)Oc1cc(C(F)(F)F)ccc1C(=O)O` [TRIFLUSAL]: the AC50 on Adenosine receptor A1 is above 30 µM.

With `CO[C@H]1/C=C/O[C@@]2(C)Oc3c(C)c(O)c4c(O)c(c(/C=N/N5CCN(C)CC5)c(O)c4c3C2=O)NC(=O)/C(C)=C\C=C\[C@H](C)[C@H](O)[C@@H](C)[C@@H](O)[C@@H](C)[C@H](OC(C)=O)[C@@H]1C` [RIFAMPIN], the AC50 in experiment [2] is above 30 µM; at Mu-type opioid receptor it was above 30 µM; in experiment [1], 2.33 µM; in experiment [3] it was 21.6 µM.

`OC[C@@H](O)[C@@H](O)[C@H](O)[C@@H](O)CO` [SORBITOL]: the AC50 at Adenosine receptor A1 is above 30 µM.

In the case of `CN1C(C(=O)Nc2ccccn2)=C(O)c2ccccc2S1(=O)=O` [PIROXICAM], the AC50 on Mu-type opioid receptor was above 30 µM; at Adenosine receptor A1, above 30 µM; in experiment [1] it was above 30 µM; at Estrogen receptor, above 10 µM.

On to `C=C[C@H]1C[N@@]2CC[C@H]1C[C@@H]2[C@@H](O)c1ccnc2ccc(OC)cc12` [QUINIDINE], for which the AC50 at Mu-type opioid receptor and at Estrogen receptor was above 30 µM in each case.
